Measured values: patent US8519096B2, “Citrullinated peptides for diagnosing and prognosing rheumatoid arthritis” (Nestec S.A., priority 2009, dated 2013)
Non-standard residues stand in square brackets, D forms with d. No end group written: not given here. *: point of attachment. Biotin = O=C1N[C@H]2[C@H](CS[C@H]2CCCCC(=O)*)N1; Cit = NC(=O)NCCC[C@H](N)C(=O)O

Legend:
[1] = tested on: anti-citrullinated protein antibodies (ACPAs); details: FIG. 3 and FIG. 7; compared with the other peptides tested
Description: (§1) This example describes an enzyme-linked immunosorbent assay (ELISA) for detecting (e.g., measuring) the presence (or absence) or level of anti-citrullinated protein antibodies (ACPAs) in an individual's sample. As a non-limiting example, a 96-well immunoassay plate was coated with avidin (e.g., neutravidin) and the plate was blocked with 5% bovine serum albumin in phosphate buffered saline. Biotinylated synthetic citrullinated peptides of the present invention were incubated with the avidin-coated plate. […] Unbound samples were washed out and RA-associated autoantibodies directed against the immobilized citrullinated peptide were detected with an enzyme-labeled (e.g., HRP-labeled) anti-human IgA, IgG, IgM, or IgA/G/M secondary antibody.

IgA ACPAs = tested on: IgA ACPAs
Description: as §1

IgM ACPAs = tested on: IgM ACPAs
Description: as §1

IgG ACPAs = assay: ACPA ELISA with anti-human IgG secondary antibody; format: binding; details: for IgG ACPA positive response (strong/moderate): Example 7, FIGS. 20-27
Description: The synthetic citrullnated peptides set forth in Example 6, which were designed from synovial proteins, were synthesized and evaluated for their ability to diagnose and/or prognose RA. […] The peptides were then tested for IgG ACPA dose-response in samples of synovial fluid taken from both healthy patients and patients with RA.

IgA/G/M ACPAs = tested on: IgA/G/M ACPAs
Description: as §1

Biotin-[Cit]PAPPPISGGGY[Cit]A[Cit]-NH2 [FB3]
dose-response curve in ACPA ELISA (in words) [1]: stronger dose-response curve

Biotin-GGGAT[Cit]SSAV[Cit]L[Cit]SSVPGV[Cit]LLQDS-NH2 [VMT5]
dose-response curve in ACPA ELISA (in words) [1]: weak dose-response curve

Biotin-HSTK[Cit]GHAKSRPV[Cit]G-NH2 [FB4]
dose-response curve in ACPA ELISA (in words) [1]: stronger dose-response curve

Biotin-GGGATRSSAV[Cit]LRSSVPGVRLLQDS-NH2 [VMT2]
sensitivity for autoantibodies of the IgA class (in words) (IgA ACPAs): particularly high sensitivity
sensitivity for autoantibodies of the IgM class (in words) (IgM ACPAs): particularly high sensitivity
dose-response curve in ACPA ELISA (in words) [1]: strong dose-response curves
IgG ACPA positive response (strong/moderate) (IgG ACPAs): moderate

Biotin-GGGATRSSAVRL[Cit]SSVPGVRLLQDS-NH2 [VMT3]
sensitivity for autoantibodies of the IgA/G/M classes (in words) (IgA/G/M ACPAs): particularly high sensitivity
dose-response curve in ACPA ELISA (in words) [1]: strong dose-response curves
sensitivity for autoantibodies of the IgG class (in words) (IgG ACPAs): particularly high sensitivity

H2B-3: synthetic citrullinated peptide derived from histone (H2B), Table 8 (Biotin-SRLAHYNK[Cit]STITSREIQTAV[Cit]LG-NH2; SMILES CC[C@H](C)[C@H](NC(=O)[C@H](CCC(=O)O)NC(=O)[C@H](CCCNC(=N)N)NC(=O)[C@H](CO)NC(=O)[C@@H](NC(=O)[C@@H](NC(=O)[C@@H](NC(=O)[C@H](CO)NC(=O)[C@H](CCCNC(N)=O)NC(=O)[C@H](CCCCN)NC(=O)[C@H](CC(N)=O)NC(=O)[C@H](Cc1ccc(O)cc1)NC(=O)[C@H](Cc1c[nH]cn1)NC(=O)[C@H](C)NC(=O)[C@H](CC(C)C)NC(=O)[C@H](CCCNC(=N)N)NC(=O)[C@H](CO)NC(=O)CCCC[C@@H]1SC[C@@H]2NC(=O)N[C@@H]21)[C@@H](C)O)[C@@H](C)CC)[C@@H](C)O)C(=O)N[C@@H](CCC(N)=O)C(=O)N[C@H](C(=O)N[C@@H](C)C(=O)N[C@H](C(=O)N[C@@H](CCCNC(N)=O)C(=O)N[C@@H](CC(C)C)C(=O)NCC(N)=O)C(C)C)[C@@H](C)O)
IgG ACPA positive response (strong/moderate) (IgG ACPAs): strong

T10α1-1: synthetic citrullinated peptide derived from collagen (Coll.T10α1), Table 8 (Biotin-KAGQ[Cit]PSLSGDKILYN[Cit]QQ[Cit]TGIFTSQIR-NH2; SMILES CC[C@H](C)[C@H](NC(=O)CNC(=O)[C@@H](NC(=O)[C@H](CCCNC(N)=O)NC(=O)[C@H](CCC(N)=O)NC(=O)[C@H](CCC(N)=O)NC(=O)[C@H](CCCNC(N)=O)NC(=O)[C@H](CC(N)=O)NC(=O)[C@H](Cc1ccc(O)cc1)NC(=O)[C@H](CC(C)C)NC(=O)[C@@H](NC(=O)[C@H](CCCCN)NC(=O)[C@H](CC(=O)O)NC(=O)CNC(=O)[C@H](CO)NC(=O)[C@H](CC(C)C)NC(=O)[C@H](CO)NC(=O)[C@@H]1CCCN1C(=O)[C@H](CCCNC(N)=O)NC(=O)[C@H](CCC(N)=O)NC(=O)CNC(=O)[C@H](C)NC(=O)[C@H](CCCCN)NC(=O)CCCC[C@@H]1SC[C@@H]2NC(=O)N[C@@H]21)[C@@H](C)CC)[C@@H](C)O)C(=O)N[C@@H](Cc1ccccc1)C(=O)N[C@H](C(=O)N[C@@H](CO)C(=O)N[C@@H](CCC(N)=O)C(=O)N[C@H](C(=O)N[C@@H](CCCNC(=N)N)C(N)=O)[C@@H](C)CC)[C@@H](C)O)
IgG ACPA positive response (strong/moderate) (IgG ACPAs): moderate

H2B-2: synthetic citrullinated peptide derived from histone (H2B), Table 8 (Biotin-SFVNDIFE[Cit]IAGEAS[Cit]LAHYNKRSTITS[Cit]EG-NH2; SMILES CC[C@H](C)[C@H](NC(=O)[C@H](CCCNC(N)=O)NC(=O)[C@H](CCC(=O)O)NC(=O)[C@H](Cc1ccccc1)NC(=O)[C@@H](NC(=O)[C@H](CC(=O)O)NC(=O)[C@H](CC(N)=O)NC(=O)[C@@H](NC(=O)[C@H](Cc1ccccc1)NC(=O)[C@H](CO)NC(=O)CCCC[C@@H]1SC[C@@H]2NC(=O)N[C@@H]21)C(C)C)[C@@H](C)CC)C(=O)N[C@@H](C)C(=O)NCC(=O)N[C@@H](CCC(=O)O)C(=O)N[C@@H](C)C(=O)N[C@@H](CO)C(=O)N[C@@H](CCCNC(N)=O)C(=O)N[C@@H](CC(C)C)C(=O)N[C@@H](C)C(=O)N[C@@H](Cc1c[nH]cn1)C(=O)N[C@@H](Cc1ccc(O)cc1)C(=O)N[C@@H](CC(N)=O)C(=O)N[C@@H](CCCCN)C(=O)N[C@@H](CCCNC(=N)N)C(=O)N[C@@H](CO)C(=O)N[C@H](C(=O)N[C@H](C(=O)N[C@H](C(=O)N[C@@H](CO)C(=O)N[C@@H](CCCNC(N)=O)C(=O)N[C@@H](CCC(=O)O)C(=O)NCC(N)=O)[C@@H](C)O)[C@@H](C)CC)[C@@H](C)O)
IgG ACPA positive response (strong/moderate) (IgG ACPAs): moderate

Biotin-GGGP[Cit]VVE[Cit]HQSAGGGTK[Cit]GHAKSRPV[Cit]GIHT [[Arg^25]Cit-α32]
sensitivity for autoantibodies of the IgG class (in words) (IgG ACPAs): particularly high sensitivity
EC50 of the INOVA CCP IgG assay relative to EC50 of the peptide assay (IgG ACPAs; FIG. 4, IgG ACPAs): 143 fold

FBNT-6: synthetic citrullinated peptide derived from fibronectin, Table 8 (Biotin-RIAP[Cit]ATITGPRATITGY[Cit]YRI[Cit]HHPEHG-NH2; SMILES CC[C@H](C)[C@H](NC(=O)[C@H](CCCNC(=N)N)NC(=O)CCCC[C@@H]1SC[C@@H]2NC(=O)N[C@@H]21)C(=O)N[C@@H](C)C(=O)N1CCC[C@H]1C(=O)N[C@@H](CCCNC(N)=O)C(=O)N[C@@H](C)C(=O)N[C@H](C(=O)N[C@H](C(=O)N[C@H](C(=O)NCC(=O)N1CCC[C@H]1C(=O)N[C@@H](CCCNC(=N)N)C(=O)N[C@@H](C)C(=O)N[C@H](C(=O)N[C@H](C(=O)N[C@H](C(=O)NCC(=O)N[C@@H](Cc1ccc(O)cc1)C(=O)N[C@@H](CCCNC(N)=O)C(=O)N[C@@H](Cc1ccc(O)cc1)C(=O)N[C@@H](CCCNC(=N)N)C(=O)N[C@H](C(=O)N[C@@H](CCCNC(N)=O)C(=O)N[C@@H](Cc1c[nH]cn1)C(=O)N[C@@H](Cc1c[nH]cn1)C(=O)N1CCC[C@H]1C(=O)N[C@@H](CCC(=O)O)C(=O)N[C@@H](Cc1c[nH]cn1)C(=O)NCC(N)=O)[C@@H](C)CC)[C@@H](C)O)[C@@H](C)CC)[C@@H](C)O)[C@@H](C)O)[C@@H](C)CC)[C@@H](C)O)
IgG ACPA positive response (strong/moderate) (IgG ACPAs): strong

FIB-A6: 25-mer citrullinated peptide: fibrinogen alpha chain amino acids 451-465 linked to 509-517, Cys461 to Ser (Biotin-GSGSTTTTR[Cit]SSSKTVFRH[Cit]HPDEA-NH2; SMILES CC(C)[C@H](NC(=O)[C@@H](NC(=O)[C@H](CCCCN)NC(=O)[C@H](CO)NC(=O)[C@H](CO)NC(=O)[C@H](CO)NC(=O)[C@H](CCCNC(N)=O)NC(=O)[C@H](CCCNC(=N)N)NC(=O)[C@@H](NC(=O)[C@@H](NC(=O)[C@@H](NC(=O)[C@@H](NC(=O)[C@H](CO)NC(=O)CNC(=O)[C@H](CO)NC(=O)CNC(=O)CCCC[C@@H]1SC[C@@H]2NC(=O)N[C@@H]21)[C@@H](C)O)[C@@H](C)O)[C@@H](C)O)[C@@H](C)O)[C@@H](C)O)C(=O)N[C@@H](Cc1ccccc1)C(=O)N[C@@H](CCCNC(=N)N)C(=O)N[C@@H](Cc1c[nH]cn1)C(=O)N[C@@H](CCCNC(N)=O)C(=O)N[C@@H](Cc1c[nH]cn1)C(=O)N1CCC[C@H]1C(=O)N[C@@H](CC(=O)O)C(=O)N[C@@H](CCC(=O)O)C(=O)N[C@@H](C)C(N)=O)
IgG ACPA positive response (strong/moderate) (IgG ACPAs): moderate
